Data from PMC9082340 (ACS applied materials & interfaces, 2020).
Ends that are not written are not given here.

Tests used:
[1] = test system: A7r5 rat aortic vascular smooth muscle cells; experiment: Cell viability; type: cell-based; settings: 10 μM peptide, A7r5 cells (Figure S19-G)
[2] = previous literature reports; cited from earlier work
[3] = test system: HEK-293 T cells expressing PH-LgBiT; experiment: NanoLuc; type: cell-based; settings: PyB 25–200 μM in PBS 5 min before 1 μM YARA-HiBiT or R6-HiBiT (Figure S29)
HEK-293 T cells = type: cell-based; settings: pyrene butyrate treatment

Compound	Toxicity of peptide dose [1]	Activity enhancement reported for pyrene butyrate [2]	Increase in activity over peptide alone with pyrene butyrate [3] [fold]	Cell viability at 100 μM (29 μg/mL) (HEK-293 T cells) [%]	Cell viability at 200 μM (58 μg/mL) (HEK-293 T cells) [%]
YARAAARQARAKALARQLGVAA [YARA-MK2i]	nontoxic	–	–	–	–
O=C(O)CCCc1ccc2ccc3cccc4ccc1c2c34 [pyrene butyrate, 1-pyrenebutyric acid]	–	1.5–5 fold	≤ 1.3	65	57
